Data reported in patent publication US11725011B2, “Bicyclic urea kinase inhibitors and uses thereof” (The Broad Institute, Inc., priority 2016, dated 2023).

Tests used:
Test in all cases: KINOMEscan
Format in all cases: binding
Conditions in all cases: 1 uM
ACVR1 = ACVR1 (Homo sapiens (Human), UniProt Q04771)
ADCK3 = ADCK3 (Homo sapiens (Human), UniProt Q8NI60)
ARK5 = ARK5 (Homo sapiens (Human), UniProt O60285)
ASK1 = ASK1 (Homo sapiens (Human), UniProt Q99683)
CDC2L1 = CDC2L1 (Homo sapiens (Human), UniProt P21127)
CLK2 = CLK2 (Homo sapiens (Human), UniProt P49760)
CSF1R = CSF1R (Homo sapiens (Human), UniProt P07333)
CSNK1A1 = CSNK1A1 (Homo sapiens (Human), UniProt P48729)
CSNK1D = CSNK1D (Homo sapiens (Human), UniProt P48730)
CSNK1E = CSNK1E (Homo sapiens (Human), UniProt P49674)
CSNK1G3 = CSNK1G3 (Homo sapiens (Human), UniProt Q9Y6M4)
DRAK1 = DRAK1 (Homo sapiens (Human), UniProt Q9UEE5)
EPHA7 = EPHA7 (Homo sapiens (Human), UniProt Q15375)
EPHB6 = EPHB6 (Homo sapiens (Human), UniProt O15197)
ERK3 = ERK3 (Homo sapiens (Human), UniProt Q16659)
FAK = FAK (Homo sapiens (Human), UniProt Q05397)
FER = FER (Homo sapiens (Human), UniProt P16591)
HIPK3 = HIPK3 (Homo sapiens (Human), UniProt Q9H422)
INSR = INSR (Homo sapiens (Human), UniProt P06213)
KIT (D816H) = KIT (D816H) (Homo sapiens (Human), UniProt P10721, D816H)
KIT (V559D, T670I) = KIT (V559D, T670I) (Homo sapiens (Human), UniProt P10721, T670I/V559D)
MAP3K15 = MAP3K15 (Homo sapiens (Human), UniProt Q6ZN16)
MAPKAPK2 = MAPKAPK2 (Homo sapiens (Human), UniProt P49137)
MET (M1250T) = MET (M1250T) (Homo sapiens (Human), UniProt P08581, M1250T)
MINK = MINK (Homo sapiens (Human), UniProt Q8N4C8)
MST3 = MST3 (Homo sapiens (Human), UniProt Q9Y6E0)
NEK10 = NEK10 (Homo sapiens (Human), UniProt Q6ZWH5)
NEK3 = NEK3 (Homo sapiens (Human), UniProt P51956)
NEK9 = NEK9 (Homo sapiens (Human), UniProt Q8TD19)
OSR1 = OSR1 (Homo sapiens (Human), UniProt O95747)
PCTK3 = PCTK3 (Homo sapiens (Human), UniProt Q07002)
PFCDPK1 (P. falciparum) = PFCDPK1 (P. falciparum) (Plasmodium falciparum (isolate 3D7), UniProt P62344)
PIP5K2C = PIP5K2C (Homo sapiens (Human), UniProt Q8TBX8)
PKN2 = PKN2 (Homo sapiens (Human), UniProt Q16513)
ROCK2 = ROCK2 (Homo sapiens (Human), UniProt O75116)
TLK2 = TLK2 (Homo sapiens (Human), UniProt Q86UE8)
TNNI3K = TNNI3K (Homo sapiens (Human), UniProt Q59H18)
TRKA = TRKA (Homo sapiens (Human), UniProt P04629)
WNK3 = WNK3 (Homo sapiens (Human), UniProt Q9BYP7)
YSK1 = YSK1 (Homo sapiens (Human), UniProt O00506)
YSK4 = YSK4 (Homo sapiens (Human), UniProt Q56UN5)

EPHA7, sequence (Q15375 28-998): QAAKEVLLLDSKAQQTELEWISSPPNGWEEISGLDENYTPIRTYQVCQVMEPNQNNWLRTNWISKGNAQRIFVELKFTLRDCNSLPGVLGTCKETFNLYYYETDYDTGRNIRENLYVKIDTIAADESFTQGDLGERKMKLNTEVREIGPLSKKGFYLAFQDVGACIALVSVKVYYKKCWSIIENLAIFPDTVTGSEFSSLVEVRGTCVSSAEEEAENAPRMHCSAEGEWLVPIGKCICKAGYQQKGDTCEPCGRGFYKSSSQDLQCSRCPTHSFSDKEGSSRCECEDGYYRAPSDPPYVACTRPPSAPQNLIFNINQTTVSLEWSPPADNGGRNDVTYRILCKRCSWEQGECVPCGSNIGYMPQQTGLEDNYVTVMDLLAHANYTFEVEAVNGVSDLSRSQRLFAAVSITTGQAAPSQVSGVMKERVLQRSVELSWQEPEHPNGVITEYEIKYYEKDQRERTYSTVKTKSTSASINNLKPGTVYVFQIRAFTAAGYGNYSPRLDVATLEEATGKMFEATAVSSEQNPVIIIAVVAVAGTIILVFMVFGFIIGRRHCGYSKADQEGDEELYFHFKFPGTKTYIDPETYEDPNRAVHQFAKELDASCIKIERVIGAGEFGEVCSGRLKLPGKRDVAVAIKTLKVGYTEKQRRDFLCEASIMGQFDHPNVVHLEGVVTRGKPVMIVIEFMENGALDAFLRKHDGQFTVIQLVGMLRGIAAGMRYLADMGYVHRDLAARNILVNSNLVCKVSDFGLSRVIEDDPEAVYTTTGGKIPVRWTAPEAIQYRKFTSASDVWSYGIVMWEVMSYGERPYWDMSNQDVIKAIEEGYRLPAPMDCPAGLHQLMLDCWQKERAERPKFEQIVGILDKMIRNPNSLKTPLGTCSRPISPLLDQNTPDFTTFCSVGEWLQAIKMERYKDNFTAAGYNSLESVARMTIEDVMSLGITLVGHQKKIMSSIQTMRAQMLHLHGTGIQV
MET (M1250T), sequence (P08581 25-1390 M1250T): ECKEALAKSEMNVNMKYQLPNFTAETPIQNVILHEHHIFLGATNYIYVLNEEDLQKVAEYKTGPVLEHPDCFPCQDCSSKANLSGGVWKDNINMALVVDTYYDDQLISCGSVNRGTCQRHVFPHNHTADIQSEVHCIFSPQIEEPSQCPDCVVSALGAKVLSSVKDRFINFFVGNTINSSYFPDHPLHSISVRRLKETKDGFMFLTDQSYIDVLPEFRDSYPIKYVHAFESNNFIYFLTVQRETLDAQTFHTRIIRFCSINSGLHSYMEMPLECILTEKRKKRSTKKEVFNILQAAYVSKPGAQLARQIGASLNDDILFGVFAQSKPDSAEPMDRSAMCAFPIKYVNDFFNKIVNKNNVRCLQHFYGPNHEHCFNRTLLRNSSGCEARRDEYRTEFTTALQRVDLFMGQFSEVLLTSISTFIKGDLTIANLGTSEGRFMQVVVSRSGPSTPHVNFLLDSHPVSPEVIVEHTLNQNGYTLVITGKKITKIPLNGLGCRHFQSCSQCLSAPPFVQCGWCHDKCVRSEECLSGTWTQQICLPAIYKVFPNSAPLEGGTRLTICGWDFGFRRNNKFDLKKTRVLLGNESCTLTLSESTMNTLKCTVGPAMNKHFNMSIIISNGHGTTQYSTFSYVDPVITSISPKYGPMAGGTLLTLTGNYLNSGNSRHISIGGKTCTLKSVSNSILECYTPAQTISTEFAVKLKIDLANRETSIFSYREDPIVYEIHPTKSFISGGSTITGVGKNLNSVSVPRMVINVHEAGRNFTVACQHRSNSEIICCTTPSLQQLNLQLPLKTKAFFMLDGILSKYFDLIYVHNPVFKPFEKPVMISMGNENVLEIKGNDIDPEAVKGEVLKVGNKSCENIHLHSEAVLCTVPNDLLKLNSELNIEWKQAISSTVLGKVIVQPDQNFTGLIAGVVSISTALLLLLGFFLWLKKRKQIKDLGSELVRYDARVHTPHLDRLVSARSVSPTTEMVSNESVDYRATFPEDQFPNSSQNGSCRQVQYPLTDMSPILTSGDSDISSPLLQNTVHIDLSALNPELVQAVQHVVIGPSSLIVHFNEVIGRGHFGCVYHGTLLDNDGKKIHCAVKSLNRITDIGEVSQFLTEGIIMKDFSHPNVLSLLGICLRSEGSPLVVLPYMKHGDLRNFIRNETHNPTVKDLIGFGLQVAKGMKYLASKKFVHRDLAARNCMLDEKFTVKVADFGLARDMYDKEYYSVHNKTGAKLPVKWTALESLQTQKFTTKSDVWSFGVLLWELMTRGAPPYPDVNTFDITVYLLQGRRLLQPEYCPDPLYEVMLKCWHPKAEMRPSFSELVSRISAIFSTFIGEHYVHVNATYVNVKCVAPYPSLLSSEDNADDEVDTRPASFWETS
TLK2, sequence (Q86UE8 whole entry): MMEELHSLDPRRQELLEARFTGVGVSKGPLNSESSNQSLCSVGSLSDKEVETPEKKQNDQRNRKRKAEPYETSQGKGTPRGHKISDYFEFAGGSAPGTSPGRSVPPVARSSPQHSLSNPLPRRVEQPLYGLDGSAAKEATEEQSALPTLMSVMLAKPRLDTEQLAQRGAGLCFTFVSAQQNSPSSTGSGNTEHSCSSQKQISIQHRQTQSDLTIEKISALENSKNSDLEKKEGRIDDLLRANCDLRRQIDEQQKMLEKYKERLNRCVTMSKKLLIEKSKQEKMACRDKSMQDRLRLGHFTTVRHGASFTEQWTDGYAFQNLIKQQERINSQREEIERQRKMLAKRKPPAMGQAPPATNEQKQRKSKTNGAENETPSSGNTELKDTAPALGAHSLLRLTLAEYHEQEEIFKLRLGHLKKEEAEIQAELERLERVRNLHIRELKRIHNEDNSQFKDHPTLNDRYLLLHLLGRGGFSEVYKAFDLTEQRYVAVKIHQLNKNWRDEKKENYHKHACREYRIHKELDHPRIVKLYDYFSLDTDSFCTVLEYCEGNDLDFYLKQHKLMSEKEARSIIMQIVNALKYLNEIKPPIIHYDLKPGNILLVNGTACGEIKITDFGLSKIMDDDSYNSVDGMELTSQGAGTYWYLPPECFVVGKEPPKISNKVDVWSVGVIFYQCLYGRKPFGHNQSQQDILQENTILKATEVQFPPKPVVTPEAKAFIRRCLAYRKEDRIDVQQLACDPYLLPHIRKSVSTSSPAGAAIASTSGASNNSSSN
PIP5K2C, sequence (Q8TBX8 whole entry): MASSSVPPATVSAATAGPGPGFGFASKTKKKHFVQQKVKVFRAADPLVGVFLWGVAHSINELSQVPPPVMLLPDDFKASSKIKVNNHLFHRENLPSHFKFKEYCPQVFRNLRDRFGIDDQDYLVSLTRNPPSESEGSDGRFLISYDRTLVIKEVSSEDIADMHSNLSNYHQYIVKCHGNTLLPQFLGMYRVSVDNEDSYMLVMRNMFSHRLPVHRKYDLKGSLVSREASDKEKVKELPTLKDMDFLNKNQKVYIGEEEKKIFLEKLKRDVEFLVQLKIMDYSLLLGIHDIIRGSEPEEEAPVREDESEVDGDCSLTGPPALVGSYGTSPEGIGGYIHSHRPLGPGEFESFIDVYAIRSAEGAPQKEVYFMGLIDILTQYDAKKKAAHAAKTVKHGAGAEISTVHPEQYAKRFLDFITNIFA
CSF1R, sequence (P07333 20-972): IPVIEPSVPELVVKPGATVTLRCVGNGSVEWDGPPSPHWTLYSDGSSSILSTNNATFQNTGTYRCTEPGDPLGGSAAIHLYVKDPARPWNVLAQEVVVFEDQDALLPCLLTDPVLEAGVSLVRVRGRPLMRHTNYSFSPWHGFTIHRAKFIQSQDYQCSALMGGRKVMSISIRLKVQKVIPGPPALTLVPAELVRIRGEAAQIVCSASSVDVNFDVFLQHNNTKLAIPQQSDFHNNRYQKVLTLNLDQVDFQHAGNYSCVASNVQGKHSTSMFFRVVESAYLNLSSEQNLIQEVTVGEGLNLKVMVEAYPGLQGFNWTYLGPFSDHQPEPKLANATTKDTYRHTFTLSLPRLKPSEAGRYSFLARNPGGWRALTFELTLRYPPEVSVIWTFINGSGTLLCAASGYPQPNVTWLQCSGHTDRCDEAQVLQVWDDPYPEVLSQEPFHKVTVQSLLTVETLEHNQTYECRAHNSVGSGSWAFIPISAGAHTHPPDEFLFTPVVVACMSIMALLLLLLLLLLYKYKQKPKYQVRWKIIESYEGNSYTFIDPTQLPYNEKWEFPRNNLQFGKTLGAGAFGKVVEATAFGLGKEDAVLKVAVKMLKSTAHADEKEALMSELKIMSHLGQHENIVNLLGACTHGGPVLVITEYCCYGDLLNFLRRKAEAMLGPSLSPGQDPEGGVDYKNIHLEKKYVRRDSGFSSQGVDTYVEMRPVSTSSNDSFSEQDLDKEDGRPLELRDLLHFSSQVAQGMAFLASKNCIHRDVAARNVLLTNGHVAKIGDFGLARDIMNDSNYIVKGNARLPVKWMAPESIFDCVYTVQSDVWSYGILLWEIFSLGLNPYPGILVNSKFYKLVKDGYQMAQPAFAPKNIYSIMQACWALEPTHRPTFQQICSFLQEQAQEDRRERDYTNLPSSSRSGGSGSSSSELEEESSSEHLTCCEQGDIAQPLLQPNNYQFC
OSR1, sequence (O95747 whole entry): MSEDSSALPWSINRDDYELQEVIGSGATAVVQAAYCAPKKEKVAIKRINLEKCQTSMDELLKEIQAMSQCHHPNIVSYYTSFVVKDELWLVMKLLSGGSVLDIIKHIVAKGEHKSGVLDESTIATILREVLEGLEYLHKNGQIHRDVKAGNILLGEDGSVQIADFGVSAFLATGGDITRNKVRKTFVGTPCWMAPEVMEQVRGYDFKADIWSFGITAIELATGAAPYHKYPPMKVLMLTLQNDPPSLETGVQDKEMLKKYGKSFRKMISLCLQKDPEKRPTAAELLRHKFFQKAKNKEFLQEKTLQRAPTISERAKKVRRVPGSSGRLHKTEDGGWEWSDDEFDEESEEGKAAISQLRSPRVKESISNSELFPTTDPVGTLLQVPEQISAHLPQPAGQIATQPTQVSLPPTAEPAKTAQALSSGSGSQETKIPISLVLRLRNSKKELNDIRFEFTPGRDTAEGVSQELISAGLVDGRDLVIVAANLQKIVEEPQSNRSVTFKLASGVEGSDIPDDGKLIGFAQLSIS

COc1ccc(N2C(=O)N(c3c(C)cccc3C)Cc3cnc(Nc4ccc(N5CCN(C)CC5)cc4)nc32)c(OC)c1 [HG-11-136-01]
KINOMEscan ACVR1 (ACVR1): 2.8
KINOMEscan ADCK3 (ADCK3): 38
KINOMEscan ARK5 (ARK5): 8.2
KINOMEscan ASK1 (ASK1): 100
KINOMEscan CDC2L1 (CDC2L1): 79
KINOMEscan CLK2 (CLK2): 35
KINOMEscan CSF1R (CSF1R): 0.35
KINOMEscan CSNK1A1 (CSNK1A1): 100
KINOMEscan CSNK1D (CSNK1D): 100
KINOMEscan CSNK1E (CSNK1E): 59
KINOMEscan CSNK1G3 (CSNK1G3): 84
KINOMEscan DRAK1 (DRAK1): 96
KINOMEscan EPHA7 (EPHA7): 72
KINOMEscan EPHB6 (EPHB6): 0.7
KINOMEscan ERK3 (ERK3): 81
KINOMEscan FAK (FAK): 24
KINOMEscan FER (FER): 0.1
KINOMEscan HIPK3 (HIPK3): 2.6
KINOMEscan INSR (INSR): 48
KINOMEscan KIT (D816H) (KIT (D816H)): 6
KINOMEscan KIT (V559D, T670I) (KIT (V559D, T670I)): 55
KINOMEscan MAP3K15 (MAP3K15): 40
KINOMEscan MAPKAPK2 (MAPKAPK2): 100
KINOMEscan MET (M1250T) (MET (M1250T)): 46
KINOMEscan MINK (MINK): 2.8
KINOMEscan MST3 (MST3): 4.6
KINOMEscan NEK10 (NEK10): 9.6
KINOMEscan NEK3 (NEK3): 39
KINOMEscan NEK9 (NEK9): 81
KINOMEscan OSR1 (OSR1): 49
KINOMEscan PCTK3 (PCTK3): 100
KINOMEscan PFCDPK1 (P. falciparum) (PFCDPK1 (P. falciparum)): 0.1
KINOMEscan PIP5K2C (PIP5K2C): 100
KINOMEscan PKN2 (PKN2): 94
KINOMEscan ROCK2 (ROCK2): 89
KINOMEscan TLK2 (TLK2): 92
KINOMEscan TNNI3K (TNNI3K): 3.6
KINOMEscan TRKA (TRKA): 41
KINOMEscan WNK3 (WNK3): 50
KINOMEscan YSK1 (YSK1): 19
KINOMEscan YSK4 (YSK4): 0.4
